Where a name gives a salt, the structure may show the parent alone.
Tests used:
fractured tibia = assay: Tibia fracture model, histology on the 7th day; type: in vivo, Wistar rat; conditions: 5 mg/kg i.p. once a day, 7 days
Procedure: The tibia of each Wistar (body weight: 260-330 g) was broken manually and stabilized in situ by using a 22G syringe needle as an intramedullary nail under anesthesia by pentobarbital. The rats were divided into two groups. To one of the groups, 2-piperazino-6-methyl-5-oxo-5,6-dihydro(7H)pyrro[3,4-d]pyrimidine maleate was intraperitoneally administered at 5 mg/kg once a day everyday for 7 days from immediately after the fracture. The other group was used as a control group, to which physiological saline was administered likewise. The rats in both the groups were sacrificed on the 7th day. The broken tibia of each rat was […], embedded in paraffin and then subjected to HE staining. The texture of the fractured site was pathohistologically examined. In the control group, proliferation mesenchymal cells, which were considered to be derived from periosteal cells, and membranous ossification of an osteoid tissue were observed centering around the fractured site on the 7th day after the fracture. Further, honeycomb-shaped proliferation of chondrocytes in a small number associated with formation of a cartilage matrix was observed inside the mesenchymal cells.

TMK1 cells = assay: Morphological change of TMK1 cells; type: cell-based
[1] = test system: primary cultured gastric mucosal cells; assay: Wound repair model with primary cultured gastric mucosal cells; type: cell-based, rabbit
Procedure: Primary cultured gastric mucosal cells were prepared by mechanically peeling and mincing the gastric mucosa of a rabbit having a body weight of 2 kg and then digesting the minced gastric mucosa with 0.07% collagenase. The primary cultured gastric mucosal cells were cultured at a cell concentration of 3.3×10^5 cells/ml in F-12 culture medium containing 10% fetal calf serum added therein. For this cultivation, a culture dish (60 mm in diameter) coated with collagen type I was used. […] Using an anti-BrdU antibody, the cells in the S phase were stained to identify proliferated cells.
Their effects on the process of restoration were measured under the above-described parameters. […] In each of the control group and the medicament-added groups, the area of the wounded region was measured at the 0th hour, 12th hour, 24th hour, 36th hour and 48th hour. The measurement results will be given in this order.
The control group and the groups added with the medicament at the respective concentrations were each subjected to the experiment with n=5. The results will each be presented as a (mean±S. D.) mm2. A test of significance was conducted relative to the control group. * stands for p<0.05, ** for p<0.01, *** for p<0.001. A further test of significance was conducted relative to a group added with 10 ng/ml of EGF. + stands for p<0.05, and ++ for <0.01.

`CN1Cc2nc(N3CCNCC3)ncc2C1=O` [Compound B, 2-piperazino-6-methyl-5-oxo-5,6-dihydro(7H)pyrro[3,4-d]pyrimidine maleate] was tested, and the “proliferation of mesenchymal cells at the fractured site” value (fractured tibia) was “marked proliferation of mesenchymal cells”, the “proliferation of chondrocytes associated with formation of a hyaline cartilage matrix enchondral ossification” value (fractured tibia; vs control group) was “in a quantity apparently much greater than that of the control group” and the “time of sprouting of the process of the cells similar to neurites” value (TMK1 cells; EGF and compound) was 8 h. For the same molecule, the morphological changes (TMK1 cells; EGF and compound, compared with EGF alone) was “still more marked intensive morphological changes”, the “network formation of cell processes” value (TMK1 cells; EGF and compound, day 1) was “forming a dense network on day 1” and the morphological changes (TMK1 cells; singly added, 1 mM, fifth hour to day 1) was “only slight morphological changes”. The “morphological changes after removal of the test agent” value (TMK1 cells; test agent removed) was “these morphological changes disappeared”, the “area of the wounded region (mean±S.D.)” value ([1]; EGF + 0.01 mM compound, 0th hour) was 2.06±0.04 mm2 and the “area of the wounded region (mean±S.D.)” value ([1]; EGF + 0.01 mM compound, 12th hour) was 0.92±0.05 mm2. For the same molecule, the “area of the wounded region (mean±S.D.)” value ([1]; EGF + 0.01 mM compound, 24th hour) was 0.38±0.05 mm2, the “area of the wounded region (mean±S.D.)” value ([1]; EGF + 0.01 mM compound, 36th hour) was 0.07±0.04 mm2 and the “area of the wounded region (mean±S.D.)” value ([1]; EGF + 0.01 mM compound, 48th hour) was 0 mm2. The “area of the wounded region (mean±S.D.)” value ([1]; EGF + 0.1 mM compound, 0th hour) was 2.06±0.04 mm2, the “area of the wounded region (mean±S.D.)” value ([1]; EGF + 0.1 mM compound, 12th hour) was 0.83±0.05 mm2 and the “area of the wounded region (mean±S.D.)” value ([1]; EGF + 0.1 mM compound, 24th hour) was 0.29±0.07 mm2. The “area of the wounded region (mean±S.D.)” value ([1]; EGF + 0.1 mM compound, 36th hour) was 0 mm2, the “area of the wounded region (mean±S.D.)” value ([1]; EGF + 0.1 mM compound, 48th hour) was 0 mm2 and the “effect on EGF-induced acceleration of cell restoration” value ([1]; compound 0.01-0.1 mM with EGF) was “further promoted the EGF-induced acceleration of cell restoration in a concentration-dependent fashion”. The repairing effects ([1]; compound alone 0.01-0.1 mM, absence of EGF) was “did not show repairing effects in the absence of EGF”.
